Target: NS3 (Hepatitis C virus, UniProt A3EZJ3)
Test: Inhibitory activity against Hepatitis C virus NS3 protease by ELISA
Parameters: species or system Hepacivirus hominis

Sequence of NS3 (A3EZJ3 whole entry): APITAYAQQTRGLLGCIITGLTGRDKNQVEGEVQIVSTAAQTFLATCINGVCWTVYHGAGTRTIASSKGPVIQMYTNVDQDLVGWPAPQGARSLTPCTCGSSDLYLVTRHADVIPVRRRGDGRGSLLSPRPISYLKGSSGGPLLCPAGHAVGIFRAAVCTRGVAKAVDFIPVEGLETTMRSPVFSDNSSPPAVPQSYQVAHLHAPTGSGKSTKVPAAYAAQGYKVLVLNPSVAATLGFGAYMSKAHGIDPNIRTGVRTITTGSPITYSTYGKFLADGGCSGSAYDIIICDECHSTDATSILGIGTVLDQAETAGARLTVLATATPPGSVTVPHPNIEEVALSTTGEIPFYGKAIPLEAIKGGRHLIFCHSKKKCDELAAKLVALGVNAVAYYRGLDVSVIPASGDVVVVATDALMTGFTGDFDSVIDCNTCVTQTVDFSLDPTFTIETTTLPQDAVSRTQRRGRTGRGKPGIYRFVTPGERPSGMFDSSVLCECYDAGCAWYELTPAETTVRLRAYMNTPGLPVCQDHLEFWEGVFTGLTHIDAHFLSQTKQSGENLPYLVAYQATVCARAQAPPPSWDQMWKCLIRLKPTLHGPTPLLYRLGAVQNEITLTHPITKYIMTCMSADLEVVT

O=C(OC[C@H]1O[C@H](OC(=O)c2cc(O)c(O)c(O)c2)[C@H](OC(=O)c2cc(O)c(O)c(O)c2)[C@@H](OC(=O)c2cc(O)c(O)c(O)c2)[C@@H]1O)c1cc(O)c(O)c(O)c1 showed an IC50 of 750 nM.

In the case of O=C(OC[C@H]1O[C@@H](OC(=O)c2cc(O)c(O)c(O)c2)[C@H](OC(=O)c2cc(O)c(O)c(O)c2)[C@@H](OC(=O)c2cc(O)c(O)c(O)c2)[C@@H]1OC(=O)c1cc(O)c(O)c(O)c1)c1cc(O)c(O)c(O)c1 [PENTAGALLOYL GLUCOSE], the IC50 is reported as 1600 nM.

In the case of O=C(OC[C@H]1O[C@@H](OC(=O)c2cc(O)c(O)c(O)c2)[C@H](OC(=O)c2cc(O)c(O)c(O)c2)[C@@H](O)[C@@H]1O)c1cc(O)c(O)c(O)c1, the IC50 is reported as 1890 nM.

— ChEMBL document CHEMBL1137108, “Antiviral compounds from traditional Chinese medicines Galla Chinese as inhibitors of HCV NS3 protease” (Bioorg Med Chem Lett, 2004)
